In paper PMC2866097 (Meat science, 2010) one finds Ki and Km data, which are given here for 2 molecules.

For orientation: Ki means a measure of affinity in units of concentration, obtained from inhibition or displacement. Low readings indicate a stronger hold on the target, high ones a looser hold on the target. Usually Km stands for the concentration of substrate that gives half-maximal velocity.

Data set [1] concerns bovine fast myosin subfragment 1 (fast S1, cutaneous trunci).
Data set [2] has as its target bovine slow myosin subfragment 1 (slow S1, masseter) (Bos taurus, UniProt Q9BE39). The data set can be described thus: biochemical.
Substrate in the data set “purified protein”: O=P(O)(O)OP(=O)(O)OP(=O)(O)O
The data set can be described thus: purified protein. Particulars: Mg2+.

Chain of bovine slow myosin subfragment 1 (slow S1, masseter) (P85100 2-199 partner, one chain of several): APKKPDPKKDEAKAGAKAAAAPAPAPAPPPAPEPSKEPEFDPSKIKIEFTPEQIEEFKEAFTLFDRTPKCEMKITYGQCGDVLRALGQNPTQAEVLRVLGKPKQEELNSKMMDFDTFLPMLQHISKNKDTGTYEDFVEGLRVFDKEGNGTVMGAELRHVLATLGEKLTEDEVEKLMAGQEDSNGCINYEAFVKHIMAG

Regarding `O=P(O)(O)OP(=O)(O)O` [PPi, pyrophosphate], the inhibition constant Ki in data set [1] came to 88 ± 6.9 µM; in data set [2], 18 ± 1.8 µM.

B1: bovine slow myosin subfragment 1 (slow S1, masseter) (Bos taurus) (protein)
chain: MVDAEMAAFGEAAPYLRKSEKERLEAQTRPFDLKKDVFVPDDKEEFVKATILSREGGKVTAETEHGKTVTVKEDQVLQQNPPKFDKIEDMAMLTFLHEPAVLYNLKERYASWMIYTYSGLFCVTINPYKWLPVYNAEVVAAYRGKKRSEAPPHIFSISDNAYQYMLTDRENQSILITGESGAGKTVNTKRVIQYFAVIAAIGDRSKKEQATGKGTLEDQIIQANPALEAFGNAKTVRNDNSSRFGKFIRIHFGATGKLASADIETYLLEKSRVIFQLKAERDYHIFYQILSNKKPELLDMLLITNNPYDYAFISQGETTVASIDDAEELMATDNAFDVLGFTTEEKNSMYKLTGAIMHFGNMKFKLKQREEQAEPDGTEEADKSAYLMGLNSADLLKGLCHPRVKVGNEYVTKGQNVQQVVYAKGALAKAVYERMFNWMVTRINATLETKQPRQYFIGVLDIAGFEIFDFNSFEQLCINFTNEKLQQFFNHHMFVLEQEEYKKEGIEWEFIDFGMDLQACIDLIEKPMGIMSILEEECMFPKATDMTFKAKLFDNHLGKSSNFQKPRNIKGKPEAHFSLIHYAGTVDYNIIGWLQKNKDPLNETVVDLYKKSSLKMLSSLFANYAGFDTPIEKGKGKAKKGSSFQTVSALHRENLNKLMTNLRSTHPHFVRCIIPNETKSPGVIDNPLVMHQLRCNGVLEGIRICRKGFPNRILYGDFRQRYRILNPAAIPEGQFIDSRKGAEKLLGSLDIDHNQYKFGHTKVFFKAGLLGLLEEMRDERLSRIITRIQAQSRGVLSRMEFKKLLERRDSLLIIQWNIRAFMGVKNWPWMKLYFKIKPLL
In the case of B1, in the data set “purified protein”, the Michaelis constant (Km) was 380 ± 130 µM.
